Key:
MMP-14 [1] = target: T1, MMP-14 (Homo sapiens, UniProt P50281); assay: Fluorogenic substrate enzyme inhibition assay, MMP-14; type: biochemical; details: 25°C, HEPES pH 7.5, 5 μM TCEP, fluorogenic substrate 1 μM
T1 construct: gift of Dr. Harald Tscheche (Bielefeld University, Bielefeld, Germany)
Description: (§1) Enzymatic assays to characterize inhibitor potency were performed as previously described. Assays were performed at 25°C in 50 mM 4-(2-hydroxyethyl)-1-piperazineethanesulfonic acid (HEPES) buffer at pH 7.5 with 10 mM CaCl2, 200 mM NaCl, 0.01% (w/v) Brij-35, and 5 μM tris(2-carboxyethyl)[…] (TCEP). The fluorogenic substrate Mca-PLGLDpa-AR-NH2 (M-1895, Bachem, Torrance, CA) was used at a concentration of 1 μM as the substrate to measure inhibition constants. Briefly, 10 μL of inhibitor solution or control (100% DMSO), 176 μL of assay buffer, and 10 μL of enzyme solution were mixed and incubated for 30 min prior to initiation of the assay, which was accomplished by adding 4 μL of substrate solution, 5% final concentration DMSO. The release of product was monitored by fluorescence (λex = 328 nm, λem = 393 nm) with a PerkinElmer luminescence spectrophotometer LS50B (FL WinLab v3.0) connected to a temperature-controlled water bath. Inhibitor potency was determined via comparison of relative rates (vi/vo).

MMP-1 = target: T2, MMP-1 (Homo sapiens, UniProt P03956); assay: Fluorogenic substrate enzyme inhibition assay, MMP-1; type: biochemical; details: 25°C, HEPES pH 7.5, 5 μM TCEP, fluorogenic substrate 1 μM
T2 construct: gift of Dr. L. Jack Windsor (Indiana University, Indianapolis, IN)
T2 sequence (P03956 100-469): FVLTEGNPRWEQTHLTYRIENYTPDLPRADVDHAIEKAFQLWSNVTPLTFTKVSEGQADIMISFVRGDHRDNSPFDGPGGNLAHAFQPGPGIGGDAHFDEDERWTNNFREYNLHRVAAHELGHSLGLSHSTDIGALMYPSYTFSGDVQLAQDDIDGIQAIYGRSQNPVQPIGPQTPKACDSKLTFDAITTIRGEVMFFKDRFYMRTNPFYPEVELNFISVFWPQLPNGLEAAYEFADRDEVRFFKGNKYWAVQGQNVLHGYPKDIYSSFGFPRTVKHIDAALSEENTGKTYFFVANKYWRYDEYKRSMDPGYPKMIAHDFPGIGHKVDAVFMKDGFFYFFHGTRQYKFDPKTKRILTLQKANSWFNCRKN
Description: as §1, with “The fluorogenic substrate Mca-PLGLDpa-AR-NH2 (M-1895, Bachem, Torrance, CA) was used at a concentration of 1 μM as the substrate to measure inhibition constants.” left out, “The release of product was monitored by fluorescence (λex = 328 nm, λem = 393 nm) with a PerkinElmer luminescence spectrophotometer LS50B (FL WinLab v3.0) connected to a temperature-controlled water bath.” left out

MMP-9 = target: T3, MMP-9 (Homo sapiens, UniProt P14780); assay: Fluorogenic substrate enzyme inhibition assay, MMP-9; type: biochemical; details: 25°C, HEPES pH 7.5, 5 μM TCEP, fluorogenic substrate 1 μM
T3 construct: human neutrophil gelatinase B was purified from human blood; from tissue; host or cells: human blood (neutrophils)
T3 sequence (P14780 94-707): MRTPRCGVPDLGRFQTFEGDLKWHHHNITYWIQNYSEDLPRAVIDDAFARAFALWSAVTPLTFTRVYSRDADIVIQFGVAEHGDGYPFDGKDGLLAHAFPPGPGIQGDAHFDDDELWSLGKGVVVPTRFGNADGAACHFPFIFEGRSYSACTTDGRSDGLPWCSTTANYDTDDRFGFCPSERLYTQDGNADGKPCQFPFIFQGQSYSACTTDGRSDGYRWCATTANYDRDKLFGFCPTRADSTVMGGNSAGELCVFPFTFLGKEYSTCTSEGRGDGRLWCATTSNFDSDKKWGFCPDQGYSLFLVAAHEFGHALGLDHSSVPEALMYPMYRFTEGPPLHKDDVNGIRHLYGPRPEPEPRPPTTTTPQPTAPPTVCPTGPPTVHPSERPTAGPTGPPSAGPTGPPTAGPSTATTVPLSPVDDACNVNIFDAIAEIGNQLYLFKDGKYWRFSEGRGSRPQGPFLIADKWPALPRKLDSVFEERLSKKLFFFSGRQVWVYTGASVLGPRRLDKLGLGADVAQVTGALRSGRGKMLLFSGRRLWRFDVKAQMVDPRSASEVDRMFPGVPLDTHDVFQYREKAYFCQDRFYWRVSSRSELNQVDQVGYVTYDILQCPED
Description: as §1, with “The fluorogenic substrate Mca-PLGLDpa-AR-NH2 (M-1895, Bachem, Torrance, CA) was used at a concentration of 1 μM as the substrate to measure inhibition constants.” left out, “The release of product was monitored by fluorescence (λex = 328 nm, λem = 393 nm) with a PerkinElmer luminescence spectrophotometer LS50B (FL WinLab v3.0) connected to a temperature-controlled water bath.” left out

hMSCs [2] = assay: Adipogenic differentiation, lipid accumulation, co-treatment with T0070907; type: cell-based, human; details: 10 μM compound with 10 μM T0070907
Description: (§2) Human MSCs were seeded into 6-well plates at 1,000 cells/cm^2. Upon reaching 70–80% confluence hMSCs were induced towards an adipogenic lineage by adding dexamethasone (0.5 μM), 3-isobutyl-1-methylxanthine ([…]), and indomethacin (50 μM) to the culture medium. Tested compounds were dissolved in DMSO and added to treatment wells during differentiation to a final total concentration of 10 μM with DMSO concentrations remaining constant (0.125% or 0.25% v/v) between conditions. Wells treated with appropriate concentrations of DMSO alone served as controls. Media and treatments were refreshed every 72 h for 21 days.
(§3) After 21 days of differentiation, hMSCs were washed with PBS and fixed with neutral buffered formalin for 1 h. Cells were then stained with 0.3% (w/v) Oil Red-O in 3:2 100% isopropyl alcohol to PBS for 20 min, washed with PBS, stained with 5 μg/mL Hoechst 33342 for 5 min, then washed again. Cultures were later imaged with an epifluorescence capable Nikon TE2000-E2 Eclipse microscope. Relative staining was determined with ImageJ (version 1.46c, National Institutes of Health, Bethesda, MD) by standardizing the area stained in each image to nuclei number prior to normalizing against DMSO treated controls.

hMSCs [3] = assay: Cytotoxicity assay (Trypan Blue, cell count); type: cell-based, human; details: 0–100 μM, 24 h
Description: Mercaptosulfonamide MMPIs were dissolved in 100% DMSO to generate 8 mM stock solutions and subsequently diluted with αMEM, while maintaining the final DMSO concentration at 1.25% (v/v). Media supplemented with a panel of final inhibitor concentrations ranging from 0–100 μM were then added to 70–80% confluent hMSC cultures and incubated for 24 h. At the end of treatment, inhibitor-conditioned media was removed and cells were washed with phosphate buffered saline (PBS) (pH 7.4) prior to being trypsinized (0.25% Trypsin, GE Healthcare), pelleted, and resuspended in 1 mL of fresh αMEM. Aliquots of the cell suspension for each condition were diluted 1:1 with 0.4% (w/v) Trypan Blue and counted with a hemocytometer. Relative cytotoxicity was determined by normalizing cell number for each condition against its respective control. A concentration was arbitrarily deemed cytotoxic if it produced a statistically significant reduction in cell number when compared to DMSO controls.

MMP-7 = target: T4, MMP-7 (Homo sapiens, UniProt P09237); assay: Fluorogenic substrate enzyme inhibition assay, MMP-7; type: biochemical; details: 25°C, HEPES pH 7.5, 5 μM TCEP, fluorogenic substrate 1 μM
T4 construct: gift of Dr. Harold E. Van Wart (Syntex, Palo Alto, CA)
T4 sequence (P09237 95-267): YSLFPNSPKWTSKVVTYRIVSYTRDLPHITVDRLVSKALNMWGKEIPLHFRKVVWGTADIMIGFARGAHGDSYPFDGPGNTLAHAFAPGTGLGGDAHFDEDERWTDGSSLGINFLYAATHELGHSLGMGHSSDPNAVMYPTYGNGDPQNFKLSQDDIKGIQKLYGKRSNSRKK
Description: as §1

hMSCs [4] = assay: Adipogenic differentiation, lipid accumulation by Oil Red-O staining; type: cell-based, human; details: 10 μM, 21 days differentiation, vs DMSO control
Description: as §2, §3

MMP-2 [5] = target: T5, MMP-2 (Homo sapiens, UniProt P08253); assay: Fluorogenic substrate enzyme inhibition assay, MMP-2; type: biochemical; details: 25°C, HEPES pH 7.5, 5 μM TCEP, fluorogenic substrate 1 μM
T5 construct: gift of Dr. L. Jack Windsor (Indiana University, Indianapolis, IN)
T5 sequence (P08253 110-660): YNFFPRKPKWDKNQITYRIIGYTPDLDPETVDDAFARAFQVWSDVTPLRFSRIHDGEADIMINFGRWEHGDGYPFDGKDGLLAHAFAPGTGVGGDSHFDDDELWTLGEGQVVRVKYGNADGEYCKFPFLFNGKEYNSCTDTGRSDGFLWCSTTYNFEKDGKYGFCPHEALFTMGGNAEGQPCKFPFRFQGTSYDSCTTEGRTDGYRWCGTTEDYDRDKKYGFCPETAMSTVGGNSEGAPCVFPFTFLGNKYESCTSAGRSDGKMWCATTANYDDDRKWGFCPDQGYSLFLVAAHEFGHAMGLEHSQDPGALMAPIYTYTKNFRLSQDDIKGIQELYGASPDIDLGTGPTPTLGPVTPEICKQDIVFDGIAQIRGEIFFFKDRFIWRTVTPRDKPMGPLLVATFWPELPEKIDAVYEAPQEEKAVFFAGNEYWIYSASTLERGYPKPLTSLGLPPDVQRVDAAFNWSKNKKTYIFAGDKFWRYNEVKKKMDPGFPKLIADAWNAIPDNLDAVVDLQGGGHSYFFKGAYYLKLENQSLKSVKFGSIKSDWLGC
Description: as §1, with “The fluorogenic substrate Mca-PLGLDpa-AR-NH2 (M-1895, Bachem, Torrance, CA) was used at a concentration of 1 μM as the substrate to measure inhibition constants.” left out, “The release of product was monitored by fluorescence (λex = 328 nm, λem = 393 nm) with a PerkinElmer luminescence spectrophotometer LS50B (FL WinLab v3.0) connected to a temperature-controlled water bath.” left out

MMP-14 [6] = assay: qPCR of MMP-14 gene expression in hMSCs undergoing adipogenesis; type: cell-based, human; details: 10 μM
Description: (§4) MMPI treated and untreated hMSCs were collected every 72 h over 21 days of differentiation. Total RNA from each time point was isolated using the E.Z.N.A. Total RNA Kit I (Omega Bio-Tek, Norcross, GA) and purified with the DNA-free RNA Kit (Zymo Research, Irvine, CA). RNA was resuspended in nuclease-free water, with concentrations determined via a Nanodrop UV-Vis Spectrophotometer (ThermoFisher Scientific, Waltham, MA). 500 ng of RNA was used for cDNA synthesis using qScript cDNA SuperMix (Quanta Bioscience, Gaitherburg, MD). 100 ng/μL cDNA was used as template for quantitative PCR on a 7500 Fast Real Time PCR system (Life Technologies, Carlsbad, CA) using PerfeCTa SYBR® Green SuperMix, Low Rox (Quanta Bioscience). Relative gene expression was determined via the 2^^(-ΔΔCt) method. Expression levels of PPARγ (peroxisome-proliferator activated receptor gamma) were determined. β-Actin was used as an endogenous control. Primers were designed with Primer-BLAST (NCBI) and purchased from Integrated DNA Technologies (IDT, Coralville, IA). MMP-2: forward: 5’-[…]-3’ reverse: 5’-[…]-3’; MMP-14: forward: 5’-[…]-3’ Reverse: 5’-[…]-3’; PPARγ: forward: 5’-[…]-3’ reverse: 5’-[…]-3’; β-Actin: forward: 5’-[…]-3’ reverse: 5’-[…]-3’.

MMP-2 [7] = assay: qPCR of MMP-2 gene expression in hMSCs undergoing adipogenesis; type: cell-based, human; details: 10 μM
Description: as §4

[8] = parameters: method as in PMID 23631440; details: standard enzyme inhibition assay conditions; cited from earlier work
hMSCs [9] = assay: Relative cell number via nuclei counts in differentiating hMSCs; type: cell-based, human
Description: as §3
Fig 5 Co-treatment of differentiating hMSCs with T0070907 and MMPIs. […] DMSO vehicle was maintained consistent between treatments and used as control. (B) Relative cell number was determined via nuclei counts. […] Scale bar 150 μm. ** P < 0.05, ++ P < 0.05, ## P < 0.05 compared to T0070907.

PPARγ [10] = assay: qPCR of PPARγ gene expression in hMSCs undergoing adipogenesis; type: cell-based, human; details: 10 μM, 21 days, harvested every 72 h, vs DMSO controls
Description: as §4

[11] = tested on: MDA-MB-231 breast cancer cells; parameters: method as in PMID 21498701; details: treatments up to 20 μM, without induction of apoptosis; cited from earlier work
[12] = tested on: MCF-7 breast cancer cells; parameters: method as in PMID 21498701; details: treatments up to 20 μM, without induction of apoptosis; cited from earlier work
[13] = parameters: method as in PMID 19752200; details: up to 50 μM; cited from earlier work
PPARγ [14] = tested on: PPARγ; parameters: method as in PMID 11877444; details: read-out: apparent IC50; cited from earlier work
[15] = Day 21, compared to the negative control

NCCCCCC(=O)N1C[C@H](NS(=O)(=O)c2ccc(Oc3ccccc3)cc2)[C@@H](O)C1 (relative stereo) [YHJ-7-82]
IC50 (MMP-14 [1]): > 200000 nM
IC50 MMP-14 (MMP-14 [1]): almost undetectable inhibitory activity
IC50 (MMP-1): > 200000 nM
IC50 MMP-1 (MMP-1): almost undetectable inhibitory activity
IC50 (MMP-9): > 200000 nM
IC50 MMP-9 (MMP-9): almost undetectable inhibitory activity
Further reduction of lipid accumulation on co-treatment with T0070907 (hMSCs [2]): did not provide any additional reductions
Cytotoxicity (hMSCs [3]): minimal cytotoxicity across all tested concentrations
IC50 (MMP-7): > 200000 nM
IC50 MMP-7 (MMP-7): almost undetectable inhibitory activity
Reduction of lipid accumulation (hMSCs [4]): did not produce a significant response
IC50 (MMP-2 [5]): > 100000 nM
IC50 MMP-2 (MMP-2 [5]): almost undetectable inhibitory activity

NCCCCCC(=O)N1C[C@H](NS(=O)(=O)c2ccc(Oc3ccccc3)cc2)[C@@H](S)C1 (relative stereo) [YHJ-7-52]
MMP-14 gene expression level on Day 21 (MMP-14 [6]; [15]): significantly higher
MMP-14 gene expression level (MMP-14 [6]; over 21 days, vs DMSO control): does not affect
IC50 (MMP-14 [1]): 4.3 ± 0.7 nM
IC50 (MMP-1): 1200 ± 370 nM
MMP-2 gene expression level on Day 21 (MMP-2 [7]; [15]): significantly higher
MMP-2 gene expression level (MMP-2 [7]; over 21 days, vs DMSO control): does not affect
IC50 (MMP-9): 87 ± 9 nM
Stability [8]: lower stability than the hydroxamate MMPI GM6001
Further reduction of lipid accumulation on co-treatment with T0070907 (hMSCs [2]): ~ 20%
Concentration producing a significant reduction in cell number (hMSCs [3]): 100 µM
IC50 (MMP-7): 2400 ± 720 nM
Further reduction of cell number on co-treatment with T0070907 (hMSCs [9]; 10 μM compound with 10 μM T0070907): did not result in further cell number reductions
PPARγ expression (PPARγ [10]): significantly suppressed PPARγ expression after day 9
IC50 (MMP-2 [5]): 5.5 ± 4.2 nM

O=C(Nc1ccncc1)c1cc([N+](=O)[O-])ccc1Cl [T0070907]
Cytotoxicity [13]: minimally cytotoxic
Reduction of relative cell number (hMSCs [9]; 10 μM, nuclei counts): approximately 30%
Reduction of lipid accumulation (hMSCs [4]): 20%

Reference: article PMC5325569, “A new synthetic matrix metalloproteinase inhibitor reduces human mesenchymal stem cell adipogenesis” (PLoS ONE, 2017)
